Experimental data from US12115184B2, “Amorphous calcium carbonate stabilized with polyphosphates or bisphosphonates” (AMORPHICAL LTD., priority 2015, dated 2024).

Tested on: 4T1 tumor cells
Experiment: Mouse bone metastasis model, intratibial 4T1 cells
Format: in vivo, mouse (BALB/c)
Conditions: for survival rate compared with the other groups: FIG. 8, days 13-27; for clinical signs scoring compared with the other groups: FIG. 9, days 0-27, high scoring = more clinical signs
Description: The purpose of this study was to assess the potential therapeutic efficacy of ACC stabilized with triphosphate (ACC-TP) on the development and progression of bone metastases in mouse model via intraperitoneal (IP) injections. The model is induced by intra osseous inoculation of 4T1 tumor cells (cells originated from mice mammary gland tumor). Two ACC concentrations were examined. Their efficacy was compared to CaCl2 as a control calcium source and to a common treatment of bone metastases (Bisphosphonate—Alendronic acid).
The study was designed in order to assess the potential therapeutic efficacy of ACC-TP via intraperitoneal (IP) injections, on the development and progression of bone metastases in mouse model. The cancer model was induced by Intratibial injections of cancer cells to the Tibia bone. Intratibial injections are used when focusing on the relationships of cancer cells and bone after a tumor has metastasized, thus is considered the most appropriate for such studies.
Female mice (BALB/c, 9 weeks old) were used for the experiment. […] Initial body weight was 16-19 gr. The mice were let to acclimatize 5 days prior to the experiment.
The first control or test items administration day was defined as “Day 1”. On study day “0” all mice were anesthetized used intraperitoneal injection of Ketamine (80 mg/kg) and Xylazine (5 mg/kg). 4T1 (CRL-2539, B1) cells were injected intratibial into the Tibia in a dose level of 70×10^3 cells and dose volume of 10 μl per animal.
The control or test Items comprising calcium were administered intraperitoneally by a 25 G needle, daily (6 days a week) from Day 1 until study termination. The Alendronic acid was administered subcutaneously once a day, 3 days a week.
At study termination (Day 23 and Day 27), animals were […] by CO2 asphyxiation.
The following measurements and observations were recorded: (i) Mortality and morbidity (daily); (ii) Clinical signs observations (twice a week); (iii) Body weight measurements (once a week and at study termination); (iv) Radiographic analysis; and (v) Amount of food and water consumption (once a week).
Observations were performed for any changes in skin, fur, eyes, mucous membranes, respiratory, occurrence of secretions and excretions (e.g. diarrhea). Changes in gait, posture and response to handling, as the presence of bizarre behavior, tremors, convulsions, sleep and coma were also included.
X-ray monitoring were performed at Day “0” and Day “20” (X-ray generator Girth 8015).

[1] = after intratibial 4T1 injection on day 0

SMILES | survival rate compared with the other groups | clinical signs scoring compared with the other groups | day up to which no mice had deceased [1] [days] | overall performance / therapeutic effect (conclusion from survival rate and clinical signs) | mice deceased as early as day [1] [days] | survival percentages (up to day 23 of study duration)
NCCCC(O)(P(=O)(O)O)P(=O)(O)O [Alendronic acid] | survival rate is lower | highest scoring of clinical signs | 19 | worst performance |  | 
[Ca+2].[Cl-].[Cl-] [CaCl2, calcium chloride] | lower survival percentage | higher number of clinical signs |  |  | 16 | higher than 75%
